Laboratory results published in patent US20120213789A1, “New Molecular Target for Treatment of Cancer” (priority 2001, published 2012).

How the values were obtained:
[1] = tested on: C4-2B metastatic cell line; experiment: Secretion of soluble tPSA and fPSA under SPB treatment; assay type: cell-based, human; conditions: culture supernatants
Method: Cells were grown to 70-80% confluence at 37° C. and 5% CO2 in T-75 tissue culture plastic flasks. SPB stock solution was added to final concentrations of 0.5, 5.0, 10.0, and 25.0 mM in appropriate fresh media to the cell cultures. Cells were incubated at 37° C. and 5% CO2 for 72 hours. Attached cells were then harvested using a solution of 0.05% trypsin and 0.53 mM EDTA (Invitrogen Corp.). Attached cells were then pooled with any the detached cells and washed with PBS pH 7.2. Cell numbers and percent viability were determined using Trypan blue dye exclusion and a hemacytometer. At the time of their use in an experiment the viability was usually about 85% for untreated cells and a range of about 15-70% for treated cells, with the lower viabilities found at higher SPB concentrations (Thompson C, 1995; Cory et al., 1998; van Engeland et al., 1996). […] The data confirms the biological differences in these three cell lines and provides a stronger basis upon which to assess the behavior of the UC28 gene under the same SPB treatment conditions. For both of these experiments, supernatants were collected from the same experiments as in Example 1; cells were collected and assayed for apoptosis as well as for UC28 antigen expression using antibodies to SEQ ID NO:4.

[2] = tested on: C4-2B Metastatic Prostate Cell Line; experiment: UROC28/Fas label flow cytometry after SPB treatment; assay type: cell-based, human; conditions: for Total Fas / Total UC2BC: section UROC28/Fas
Method: Cells were grown to 70-80% confluence at 37° C. and 5% CO2 in T-75 tissue culture plastic flasks. SPB stock solution was added to final concentrations of 0.5, 5.0, 10.0, and 25.0 mM in appropriate fresh media to the cell cultures. Cells were incubated at 37° C. and 5% CO2 for 72 hours. Attached cells were then harvested using a solution of 0.05% trypsin and 0.53 mM EDTA (Invitrogen Corp.). Attached cells were then pooled with any the detached cells and washed with PBS pH 7.2. Cell numbers and percent viability were determined using Trypan blue dye exclusion and a hemacytometer. At the time of their use in an experiment the viability was usually about 85% for untreated cells and a range of about 15-70% for treated cells, with the lower viabilities found at higher SPB concentrations (Thompson C, 1995; Cory et al., 1998; van Engeland et al., 1996).
UC28(C) is 2.14 mg/ml rabbit polyclonal aliquot directed against the inventors' UC28 patented biomarker developed by UCor R&D gene discovery program. The Antibody was produced against a twenty amino acid (AA) synthetic peptide from the predicted AA sequence (AA 21-37) UCor, Inc. 840 Research Parkway Oklahoma City, Okla. 73104.
Goat Anti-Rabbit CY5 polyclonal Fluorchrome was used as the secondary conjugate for UC28 C rabbit polyclonal antibody and a background control for UC28 C polyclonal. Vendor is Jackson ImmunoResearch Laboratories, Inc. 872 West Baltimore Pike, P.O. Box 9 West Grove, Pa. 19390.
CD45 (FAS) IgG1 kappa—(R-phycoerythrin (RPE) is purified monoclonal antibody conjugated with R-phycoerythrin (RPE) that is specific for the FAS protein. Vendor is Dalco Corporation 6392 Via Real, Carpinteria, Calif. 93013 USA MsIgG1 IgG1 kappa R-phycoerythrin (RPE) conjugated goat anti-mouse immunoglobulins is used for (FAS) antibody negative control. Vendor is Dako Corporation 6392 Via Real, Carpinteria, Calif. 93013 USA.
A Coulter Elite engineered with a triple laser system was used to analyze all samples. Coulter control beads were used to align lasers for the dual label testing of cell samples. Laser alignment was required for both the Argon (488 nm line) laser and HeNe (633 nm line) laser. These alignments were performed prior to all measurements with the Argon laser (488 nm line) using fluorophores for FITC, RPE, PI and the HeNe laser (633 nm line) for the Cy5 fluorophores being used for the experiments described below. The histographs, voltage settings, gates, color compensation, and pressures were established prior to all sample processing.
(a) Tissue culture cells (MLC-SV40, LNCaP and C 4-2B) were aliquoted at concentration of 1×10^6 per teach 12×75 mm polystyrene tube. […]

## O=C([O-])CCCc1ccccc1.[Na+] [SPB, 4-Phenylbutyric Acid, Sodium Salt]
[1]
  fPSA production: down-regulated
  tPSA production: down-regulated
[2]; 5.0 mM SPB
  Total Fas: 3.6%
  Total UC2BC: 96.4%
[2]; 10 mM SPB
  Total Fas: 6.1%
  Total UC2BC: 94.0%
[2]; SPB, summary of Table 7
  Fas protein expression: markedly depressed
